From ChEMBL document CHEMBL4346659, “Design, synthesis and evaluation of novel 7H-pyrrolo[2,3-d]pyrimidin-4-amine derivatives as potent, selective and reversible Bruton's tyrosine kinase (BTK) inhibitors for the treatment of rheumatoid arthritis” (Eur J Med Chem, 2019)
Activity calls are given as the source filed them. The calls are words filed in the database; no cut-off is given here.

Tests used:
[1] = biological target: Tyrosine-protein kinase TXK (Homo sapiens, UniProt P42681); test: Inhibition of human recombinant TXK using Ulight-Poly GAT[EAY(1:1:1) as substrate measured after 30 mins in the presence of ATP by LANCE method
[2] = biological target: T1, Tyrosine-protein kinase BTK (Homo sapiens, UniProt Q06187); test: Inhibition of BTK in human JeKo1 cells assessed as reduction in PLCgamma-2 phosphorylation at Try1217 residue at 1000 nM after1 hr by Western blot analysis; assay type: cell-based
Mus musculus [3] = test: Antiarthritic activity in DBA1/J mouse model of collagen-induced arthritis assessed as reduction in reduction in paw thickness at 30 mg/kg to 60 mg/kg, po qd; assay type: functional, organism-based
[4] = biological target: Tyrosine-protein kinase Yes (Homo sapiens, UniProt P07947); test: Inhibition of human recombinant YES using biotinyl-beta amyloid beta amyloid beta AYQAEENTYDEYEN as substrate measured after 30 mins in the presence of ATP by HTRF assay
Daudi = test: Antiproliferative activity against human Daudi cells; assay type: functional, cell-based; details: Homo sapiens, Daudi
JeKo-1 = test: Antiproliferative activity against human JeKo1 cells; assay type: functional, cell-based; details: Homo sapiens, JeKo-1
Mus musculus [5] = test: Antiarthritic activity in collagen-induced DBA1/J mouse arthritis model assessed as reduction injoint inflammation at 30 mg/kg or 60 mg/kg, po qd cotreated with ibrutinib at 12.5 mg/kg by micro CT analysis; assay type: functional, organism-based
[6] = biological target: T1, Tyrosine-protein kinase BTK; test: Inhibition of BTK in human Daudi cells assessed as reduction in PLCgamma-2 phosphorylation at Try1217 residue at 1000 nM after1 hr by Western blot analysis; assay type: cell-based
[7] = biological target: Tyrosine-protein kinase Fgr (Homo sapiens, UniProt P09769); test: Inhibition of human recombinant FGR using Ulight-TK peptide as substrate measured after 60 mins in the presence of ATP by LANCE method
Mus musculus [8] = test: Antiarthritic activity in DBA1/J mouse model of collagen-induced arthritis assessed as reduction in bone erosion at 30 mg/kg, po qd by H and E staining based assay; assay type: functional, organism-based
[9] = biological target: Epidermal growth factor receptor (Homo sapiens, UniProt P00533); test: Inhibition of human recombinant EGFR using Ulight-CAGAGAIETDKEYYTVKD measured after 15 mins in the presence of ATP by LANCE method
Mus musculus [10] = test: Antiarthritic activity in DBA1/J mouse model of collagen-induced arthritis assessed as reduction in joint damage at 60 mg/kg, po qd by H and E staining based assay; assay type: functional, organism-based
[11] = biological target: Tyrosine-protein kinase Blk (Homo sapiens, UniProt P51451); test: Inhibition of BLK (unknown origin)
[12] = biological target: Tyrosine-protein kinase Lyn (Homo sapiens, UniProt P07948); test: Inhibition of human recombinant LYN using biotinyl-beta amyloid beta amyloid beta AKVEKIGEGTYGVVYK as substrate measured after 120 mins in the presence of ATP by HTRF assay
[13] = biological target: T1, Tyrosine-protein kinase BTK; test: Inhibition of BTK auto phosphorylation at Tyr223 residue in human Ramos cells at 100 nM measured after 1 hr by Western blot analysis; assay type: cell-based
[14] = biological target: Tyrosine-protein kinase ITK/TSK (Homo sapiens, UniProt Q08881); test: Inhibition of human recombinant ITK using Ulight-TK peptide as substrate measured after 30 mins in the presence of ATP by LANCE method
Ramos = test: Antiproliferative activity against human Ramos cells; assay type: functional, cell-based; details: Homo sapiens, Ramos
[15] = biological target: Tyrosine-protein kinase HCK (Homo sapiens, UniProt P08631); test: Inhibition of HCK (unknown origin)
[16] = biological target: T1, Tyrosine-protein kinase BTK; test: Inhibition of BTK auto phosphorylation at Tyr223 residue in human JeKo1 cells at 100 nM measured after 1 hr by Western blot analysis; assay type: cell-based
[17] = biological target: Cytoplasmic tyrosine-protein kinase BMX (Homo sapiens, UniProt P51813); test: Inhibition of BMX (unknown origin)
[18] = biological target: T1, Tyrosine-protein kinase BTK; test: Inhibition of BTK (unknown origin) at 1 uM in the presence of ATP by caliper mobility shift assay relative to control
[19] = biological target: Tyrosine-protein kinase Lck (Homo sapiens, UniProt P06239); test: Inhibition of human recombinant LCK using Ulight-Poly GAT[EAY(1:1:1) as substrate measured after 10 mins in the presence of ATP by LANCE method
[20] = biological target: Tyrosine-protein kinase Fyn (Homo sapiens, UniProt P06241); test: Inhibition of human recombinant FYN using biotinyl-beta amyloid beta amyloid beta AYQAEENTYDEYEN as substrate measured after 60 mins in the presence of ATP by HTRF assay
Mus musculus [21] = test: Antiarthritic activity in DBA1/J mouse model of collagen-induced arthritis assessed as reduction in cellular infiltration at 60 mg/kg, po qd by Safranin O-staining based assay; assay type: functional, organism-based
[22] = biological target: Tyrosine-protein kinase JAK3 (Homo sapiens, UniProt P52333); test: Inhibition of human recombinant JAK3 using Ulight-CAGAGAIETDKEYYTVKD measured after 60 mins in the presence of ATP by LANCE method
[23] = biological target: T1, Tyrosine-protein kinase BTK; test: Inhibition of BTK (unknown origin) at 0.1 uM in the presence of ATP by caliper mobility shift assay relative to control
Mus musculus [24] = test: Antiarthritic activity in DBA1/J mouse model of collagen-induced arthritis assessed as reduction in clinical arthritic score at 30 mg/kg to 60 mg/kg, po qd; assay type: functional, organism-based
[25] = biological target: Proto-oncogene tyrosine-protein kinase Src (Homo sapiens, UniProt P12931); test: Inhibition of human recombinant SRC using Ulight-Poly GAT[EAY(1:1:1) as substrate measured after 10 mins in the presence of ATP by LANCE method
[26] = biological target: T1, Tyrosine-protein kinase BTK; test: Inhibition of BTK in human Ramos cells assessed as reduction in PLCgamma-2 phosphorylation at Try1217 residue at 1000 nM after1 hr by Western blot analysis; assay type: cell-based
[27] = Toxicity in DBA1/J mouse model of collagen-induced arthritis assessed as effect on body weight at 30 to 60 mg/kg, po qd; assay type: organism-based; details: in vivo
[28] = biological target: Receptor tyrosine-protein kinase erbB-4 (Homo sapiens, UniProt Q15303); test: Inhibition of HER4 (unknown origin)
[29] = biological target: Tyrosine-protein kinase Tec (Homo sapiens, UniProt P42680); test: Inhibition of TEC (unknown origin)
[30] = biological target: Receptor tyrosine-protein kinase erbB-2 (Homo sapiens, UniProt P04626); test: Inhibition of human recombinant HER2 using biotinyl-beta amyloid beta amyloid beta AAEEEEYFELVAKKK measured after 10 mins in the presence of ATP by HTRF assay
[31] = biological target: T1, Tyrosine-protein kinase BTK; test: Inhibition of BTK auto phosphorylation at Tyr223 residue in human Daudi cells at 100 nM measured after 1 hr by Western blot analysis; assay type: cell-based
Mus musculus [32] = test: Antiarthritic activity in DBA1/J mouse model of collagen-induced arthritis assessed as reduction in bone erosion at 60 mg/kg, po qd by micro-CT analysis; assay type: functional, organism-based
Mus musculus [33] = test: Antiarthritic activity in DBA1/J mouse model of collagen-induced arthritis assessed as reduction in cartilage damage at 30 mg/kg, po qd by H and E staining based assay; assay type: functional, organism-based
[34] = biological target: T1, Tyrosine-protein kinase BTK; test: Inhibition of BTK (unknown origin) in the presence of ATP by caliper mobility shift assay

T1 sequence (Q06187 whole entry): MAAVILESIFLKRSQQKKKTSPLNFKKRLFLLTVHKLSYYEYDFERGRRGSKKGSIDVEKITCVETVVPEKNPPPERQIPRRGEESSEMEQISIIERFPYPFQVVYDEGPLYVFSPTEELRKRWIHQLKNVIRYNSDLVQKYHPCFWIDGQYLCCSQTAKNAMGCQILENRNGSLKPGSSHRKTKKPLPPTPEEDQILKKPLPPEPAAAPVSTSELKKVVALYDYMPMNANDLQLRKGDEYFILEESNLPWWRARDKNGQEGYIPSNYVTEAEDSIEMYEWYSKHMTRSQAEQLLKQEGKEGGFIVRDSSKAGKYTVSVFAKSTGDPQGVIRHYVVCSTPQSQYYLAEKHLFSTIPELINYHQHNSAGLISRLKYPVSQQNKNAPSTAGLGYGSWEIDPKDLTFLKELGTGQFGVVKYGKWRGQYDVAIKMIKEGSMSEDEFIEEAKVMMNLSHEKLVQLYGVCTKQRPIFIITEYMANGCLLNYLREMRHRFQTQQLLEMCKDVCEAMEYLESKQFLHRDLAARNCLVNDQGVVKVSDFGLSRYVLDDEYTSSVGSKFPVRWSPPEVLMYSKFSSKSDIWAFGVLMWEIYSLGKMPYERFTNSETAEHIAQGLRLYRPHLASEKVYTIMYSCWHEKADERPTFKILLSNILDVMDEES
Chain of Receptor tyrosine-protein kinase erbB-4 (Q15303 whole entry): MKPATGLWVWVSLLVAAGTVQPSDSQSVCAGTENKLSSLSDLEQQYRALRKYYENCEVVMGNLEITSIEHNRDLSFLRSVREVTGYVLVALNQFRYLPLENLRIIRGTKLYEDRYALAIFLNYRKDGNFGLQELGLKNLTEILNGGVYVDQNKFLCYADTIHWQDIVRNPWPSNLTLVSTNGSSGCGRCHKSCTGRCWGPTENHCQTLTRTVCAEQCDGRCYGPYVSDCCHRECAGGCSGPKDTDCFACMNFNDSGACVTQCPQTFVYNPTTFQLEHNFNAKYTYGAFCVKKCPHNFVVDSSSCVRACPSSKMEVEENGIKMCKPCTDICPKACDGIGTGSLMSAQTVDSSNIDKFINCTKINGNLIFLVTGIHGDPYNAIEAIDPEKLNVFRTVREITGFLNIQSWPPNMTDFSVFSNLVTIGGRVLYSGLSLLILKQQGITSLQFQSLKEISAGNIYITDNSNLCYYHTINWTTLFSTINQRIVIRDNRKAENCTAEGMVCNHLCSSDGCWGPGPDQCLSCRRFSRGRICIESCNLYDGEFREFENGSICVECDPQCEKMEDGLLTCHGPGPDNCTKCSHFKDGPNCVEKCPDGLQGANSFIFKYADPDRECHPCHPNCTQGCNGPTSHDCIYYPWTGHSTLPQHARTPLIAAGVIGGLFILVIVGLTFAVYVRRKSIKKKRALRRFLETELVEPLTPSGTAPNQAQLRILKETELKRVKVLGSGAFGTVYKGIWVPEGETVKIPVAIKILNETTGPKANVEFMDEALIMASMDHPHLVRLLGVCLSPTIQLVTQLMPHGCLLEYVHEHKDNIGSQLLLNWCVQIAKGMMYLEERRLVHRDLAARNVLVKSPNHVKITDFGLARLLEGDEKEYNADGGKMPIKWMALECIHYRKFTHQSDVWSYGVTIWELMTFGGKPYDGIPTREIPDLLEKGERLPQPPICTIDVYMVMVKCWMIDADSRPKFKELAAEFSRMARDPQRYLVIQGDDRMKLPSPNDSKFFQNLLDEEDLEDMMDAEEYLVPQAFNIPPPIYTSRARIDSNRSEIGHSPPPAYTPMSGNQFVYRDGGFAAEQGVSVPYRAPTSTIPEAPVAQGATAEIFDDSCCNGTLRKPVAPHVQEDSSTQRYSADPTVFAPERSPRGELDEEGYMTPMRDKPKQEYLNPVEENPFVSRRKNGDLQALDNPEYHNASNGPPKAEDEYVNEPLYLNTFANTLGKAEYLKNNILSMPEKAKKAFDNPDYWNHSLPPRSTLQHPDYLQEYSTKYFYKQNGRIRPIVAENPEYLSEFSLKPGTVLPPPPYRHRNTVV
Chain of Tyrosine-protein kinase Lck (P06239 whole entry): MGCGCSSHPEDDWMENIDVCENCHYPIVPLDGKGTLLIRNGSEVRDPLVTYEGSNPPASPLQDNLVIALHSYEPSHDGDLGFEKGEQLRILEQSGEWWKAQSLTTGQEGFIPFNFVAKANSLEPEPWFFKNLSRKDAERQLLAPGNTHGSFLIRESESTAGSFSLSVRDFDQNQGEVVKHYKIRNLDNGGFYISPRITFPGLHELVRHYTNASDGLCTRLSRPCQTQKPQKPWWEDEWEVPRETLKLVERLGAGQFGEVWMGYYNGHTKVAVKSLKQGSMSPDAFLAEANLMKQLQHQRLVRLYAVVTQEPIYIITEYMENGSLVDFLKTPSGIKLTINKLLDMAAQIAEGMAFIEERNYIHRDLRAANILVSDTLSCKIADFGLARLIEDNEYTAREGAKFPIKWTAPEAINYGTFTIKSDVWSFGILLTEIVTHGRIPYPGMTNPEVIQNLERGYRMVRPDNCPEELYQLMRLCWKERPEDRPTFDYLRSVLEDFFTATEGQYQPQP
Chain of Proto-oncogene tyrosine-protein kinase Src (P12931 2-536 limits assumed): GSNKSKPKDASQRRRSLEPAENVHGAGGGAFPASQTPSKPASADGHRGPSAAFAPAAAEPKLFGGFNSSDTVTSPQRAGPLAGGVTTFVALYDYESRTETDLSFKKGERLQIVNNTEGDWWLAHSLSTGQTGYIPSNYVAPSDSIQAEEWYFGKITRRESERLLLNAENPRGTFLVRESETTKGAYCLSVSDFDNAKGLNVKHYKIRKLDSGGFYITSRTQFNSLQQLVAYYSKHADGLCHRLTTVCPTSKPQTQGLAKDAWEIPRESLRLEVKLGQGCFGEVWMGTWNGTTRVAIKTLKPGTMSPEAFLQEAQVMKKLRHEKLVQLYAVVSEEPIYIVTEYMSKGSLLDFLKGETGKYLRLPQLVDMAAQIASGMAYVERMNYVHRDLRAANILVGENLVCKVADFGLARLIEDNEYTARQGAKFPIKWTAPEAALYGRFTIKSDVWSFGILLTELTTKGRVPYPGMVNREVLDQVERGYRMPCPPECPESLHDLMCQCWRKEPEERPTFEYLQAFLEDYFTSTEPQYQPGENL
Chain of Tyrosine-protein kinase Fgr (P09769 whole entry): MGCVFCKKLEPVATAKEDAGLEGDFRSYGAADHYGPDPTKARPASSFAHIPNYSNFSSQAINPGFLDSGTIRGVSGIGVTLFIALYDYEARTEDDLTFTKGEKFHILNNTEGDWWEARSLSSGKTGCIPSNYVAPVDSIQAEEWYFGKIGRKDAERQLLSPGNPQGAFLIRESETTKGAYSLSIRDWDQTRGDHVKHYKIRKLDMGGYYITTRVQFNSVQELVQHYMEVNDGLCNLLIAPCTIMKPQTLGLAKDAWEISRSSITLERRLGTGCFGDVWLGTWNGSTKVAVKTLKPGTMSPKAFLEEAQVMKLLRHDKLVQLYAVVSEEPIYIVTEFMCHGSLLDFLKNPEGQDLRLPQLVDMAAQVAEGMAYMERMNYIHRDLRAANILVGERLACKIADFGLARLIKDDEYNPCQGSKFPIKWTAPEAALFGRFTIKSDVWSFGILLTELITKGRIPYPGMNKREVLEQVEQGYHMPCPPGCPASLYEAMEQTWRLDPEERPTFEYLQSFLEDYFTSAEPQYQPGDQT
Chain of Cytoplasmic tyrosine-protein kinase BMX (P51813 whole entry): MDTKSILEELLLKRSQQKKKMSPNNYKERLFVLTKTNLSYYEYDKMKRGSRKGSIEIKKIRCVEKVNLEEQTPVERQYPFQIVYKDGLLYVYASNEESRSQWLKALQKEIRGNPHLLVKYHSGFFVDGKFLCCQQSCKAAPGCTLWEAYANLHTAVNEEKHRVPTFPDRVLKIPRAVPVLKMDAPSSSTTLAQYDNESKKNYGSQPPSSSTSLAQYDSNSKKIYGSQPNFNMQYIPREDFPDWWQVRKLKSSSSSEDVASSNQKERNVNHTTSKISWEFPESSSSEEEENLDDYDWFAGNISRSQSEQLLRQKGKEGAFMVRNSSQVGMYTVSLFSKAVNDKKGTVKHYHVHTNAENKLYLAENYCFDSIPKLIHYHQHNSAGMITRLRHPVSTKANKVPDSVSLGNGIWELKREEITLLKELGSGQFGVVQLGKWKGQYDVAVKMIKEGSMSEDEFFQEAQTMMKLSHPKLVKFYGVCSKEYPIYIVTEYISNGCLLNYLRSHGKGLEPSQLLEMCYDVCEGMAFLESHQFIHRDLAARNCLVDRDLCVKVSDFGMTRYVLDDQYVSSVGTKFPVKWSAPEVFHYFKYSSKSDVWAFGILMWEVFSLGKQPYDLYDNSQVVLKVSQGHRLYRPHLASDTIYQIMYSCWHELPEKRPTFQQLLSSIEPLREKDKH
Chain of Tyrosine-protein kinase TXK (P42681 whole entry): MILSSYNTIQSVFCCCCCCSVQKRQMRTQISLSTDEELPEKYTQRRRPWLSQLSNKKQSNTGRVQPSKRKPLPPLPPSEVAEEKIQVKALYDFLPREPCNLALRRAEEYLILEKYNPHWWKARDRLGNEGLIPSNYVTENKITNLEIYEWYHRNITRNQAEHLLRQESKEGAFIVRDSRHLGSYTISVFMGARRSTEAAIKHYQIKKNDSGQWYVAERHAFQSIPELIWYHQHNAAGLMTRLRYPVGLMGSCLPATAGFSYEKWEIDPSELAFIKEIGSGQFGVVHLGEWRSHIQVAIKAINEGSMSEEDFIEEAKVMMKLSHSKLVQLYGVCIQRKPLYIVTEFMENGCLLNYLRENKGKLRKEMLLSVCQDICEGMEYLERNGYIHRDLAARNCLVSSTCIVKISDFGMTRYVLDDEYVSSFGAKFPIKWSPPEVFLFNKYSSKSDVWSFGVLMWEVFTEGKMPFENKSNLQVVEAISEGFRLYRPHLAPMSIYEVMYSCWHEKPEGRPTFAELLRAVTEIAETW

Nc1ncnc2c1c(-c1ccc(Oc3ccccc3)cc1)cn2C[C@H]1CCCN1C[C@@H]1CO1
IC50 [1]: 358 nM | inhibition [2]: Active | Activity (Mus musculus [3]): Dose-dependent effect | IC50 [4]: 86 nM | IC50 (Daudi): 7040 nM | IC50 (JeKo-1): 11100 nM | Activity (Mus musculus [5]): Dose-dependent effect | inhibition [6]: Active | IC50 [7]: 28 nM | Activity (Mus musculus [8]): Active | IC50 [9]: > 1000 nM | Activity (Mus musculus [10]): Active | IC50 [11]: 10 nM | IC50 [12]: 10 nM | inhibition [13]: Active | IC50 [14]: > 1000 nM | IC50 (Ramos): 8520 nM | IC50 [15]: 33 nM | inhibition [16]: Active | IC50 [17]: 83 nM | inhibition [18]: 99.8% | IC50 [19]: 31 nM | IC50 [20]: 232 nM | Activity (Mus musculus [21]): Active | IC50 [22]: > 1000 nM | inhibition [23]: 96.6% | Activity (Mus musculus [24]): Dose-dependent effect | IC50 [25]: 123 nM | inhibition [26]: Active | Activity [27]: Non-Toxic | IC50 [28]: 385 nM | IC50 [29]: 44 nM | IC50 [30]: > 1000 nM | inhibition [31]: Active | Activity (Mus musculus [32]): Active | Activity (Mus musculus [33]): Active | IC50 [34]: 3 nM
